Values of other authors as cited in patent US10952975B2, “Compositions and methods for treatment of cancer” (priority 2019, dated 2021).
pIC50: −log10 of the molar value. Read-outs that look alike come from different tables or passages of the source.

Key:
[1] = clinical studies
MAT2A [2] = biological target: T1, MAT2A (Homo sapiens, UniProt P31153); conditions: cell-free; [L-Met]=[ATP]=1 mM, [MAT2A]=10 μg/mL; 20 min preincubation, 30 min reaction; read-out: IC50, MAT2A-catalyzed SAM synthesis
LS174T cells = conditions: 36 h, 10 μM FIDAS-3
MAT2A [3] = biological target: T1, MAT2A; conditions: in vitro
[4] = patients with advanced solid tumors

T1 sequence (P31153 whole entry): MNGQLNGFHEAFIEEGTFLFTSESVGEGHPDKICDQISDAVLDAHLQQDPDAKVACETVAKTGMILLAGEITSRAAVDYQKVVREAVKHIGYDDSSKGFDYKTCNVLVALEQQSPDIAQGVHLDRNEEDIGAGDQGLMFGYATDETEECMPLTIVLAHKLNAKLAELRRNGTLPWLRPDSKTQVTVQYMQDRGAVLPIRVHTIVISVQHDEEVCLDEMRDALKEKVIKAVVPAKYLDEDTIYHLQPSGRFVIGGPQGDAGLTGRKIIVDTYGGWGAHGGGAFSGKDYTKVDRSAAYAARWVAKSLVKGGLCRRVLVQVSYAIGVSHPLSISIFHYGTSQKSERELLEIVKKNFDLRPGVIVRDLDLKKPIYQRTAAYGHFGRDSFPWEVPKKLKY

## COc1ccc(/C=C\c2cc(OC)c(OC)c(OC)c2)cc1OP(=O)([O-])[O-].[Na+].[Na+] [CA-4P, Disodium CA-4-3-O-phosphate]
[1]
  maximum tolerated dose: 60-68 mg/m^2

## Cc1ccc2c(=O)c3cccc(CC(=O)O)c3oc2c1C [DMXAA, 5,6-dimethylxanthenone-4-acetic acid]
Murine tumors
  time to arrest of tumor blood flow after administration: ≤ 30 min

## CN(C)c1ccc(/C=C/c2c(F)cccc2F)cc1 [FIDAS-3]
MAT2A [2]
  pIC50: 5.31
LS174T cells
  decrease of SAH level: 56%
  decrease of SAM level: 64%
MAT2A [3]
  competition against SAM for MAT2A binding: effectively competes against SAM

## COc1cc(/C=C\c2ccc(OC)c(OP(=O)(O)O)c2OP(=O)(O)O)cc(OC)c1OC [Oxi4503, Tetrasodium Combretastatin A-1 2′,3′-O-diphosphate]
[4]
  dose at which a tumor response was seen: 14 mg/m^2
  doses with maximum tumor perfusion reductions: ≥ 11 mg/m^2
[4]; escalation to 14 mg/m^2 was possible
  maximum tolerated dose: 8.5 mg/m^2
